# Measured values published in publication PMC12593347, “Profiling Class-Wide Bioactivities of Flavonoids While Minimizing Compound-Specific Effects Using an Equimolar Mixture Strategy” (Journal of Agricultural and Food Chemistry, 2025).
# Molecular target: T1, amyloid-β1–42 (Aβ1–42) (Homo sapiens, UniProt P05067)
# T1 construct: gene APP; Aβ1–42 monomers, biotinylated, immobilized on streptavidin biosensor
# Test: biolayer interferometry (Octet R8), steady-state […] fit
# Type: binding
# T1 sequence (P05067 672-713): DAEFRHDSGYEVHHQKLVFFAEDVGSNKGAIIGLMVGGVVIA
smiles,measurement,value
O=C(O[C@@H]1Cc2c(O)cc(O)cc2O[C@@H]1c1cc(O)c(O)c(O)c1)c1cc(O)c(O)c(O)c1 [EGCG],Kd,93 µM
